Measured values taken from US20220098203A1 (priority 2018, published 2022).
Read-outs that look alike come from different tables or passages of the source.

Columns and labels:
HCT116 MTAP-/- = experiment: Inhibition of cellular proliferation (Cell Titer Glo), HCT116 MTAP-/-; format: cell-based, human; conditions: 4 days, read-out: 4 Day Relative Growth Inhibition (MTAP −/−)
Procedure, shortened: (§1)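 After 4 days of compound exposure at 37 °C, starting 24 h after plating, growth of the MTAP-wildtype and MTAP-deleted HCT116 pair was measured as ATP luminescence (CellTiter-Glo). The proliferation index was signal minus no-cell blank, divided by blank-corrected 0.2% DMSO control.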

[1] = test system: SAM in HCT116 MTAP-deleted cells; experiment: Cellular assay of target engagement (SAM), LC-MS/MS; format: cell-based, human; conditions: 72 h, read-out: Cell 72 h SAM Inhibition (MTAP −/−)
Procedure, shortened: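 Target engagement was read as intracellular SAM, measured by LC-MS/MS with d3-SAM as internal standard in methanol/acetic acid extracts. These came from MTAP-deleted HCT116 colon carcinoma cells exposed to inhibitor for 72 hrs.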

HCT116 MTAP+/+ = experiment: Inhibition of cellular proliferation (Cell Titer Glo), HCT116 MTAP+/+; format: cell-based; conditions: Homo sapiens, HCT-116, 96 h, Table 5a, 4 days, read-out: 4 Day Relative Growth Inhibition (MTAP +/+)
Procedure, shortened: as §1

MAT2A homodimer = target: T1, MAT2A homodimer (Homo sapiens, UniProt P31153); experiment: MAT2A biochemical assay (liberated phosphate, PiColorLock Gold); conditions: Table 5a; MAT2A biochemical assay; read-out: Enzyme Inhibition
T1 construct: inferred from the Ni sepharose purification and imidazole elution; made in house; host or cells: SF9 insect cells, recombinant baculovirus (Bac to Bac, pFASTBAC1)
Procedure, shortened: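 Readout is liberated phosphate (PiColorLock Gold), stoichiometric with SAM production, quantified against a potassium phosphate standard curve. Enzyme: recombinant MAT2A homodimer from Sf9, equilibrated 60 min at 25 °C with compound before 60 min reaction with substrate mix containing 500 μM ATP and 400 μM L-methionine.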

[2] = Homo sapiens, HCT-116, 96 h, Table 5a
[3] = Table 6, select pairs of compounds
[4] = Homo sapiens, HCT-116, Table 5a

T1 sequence (P31153 whole entry): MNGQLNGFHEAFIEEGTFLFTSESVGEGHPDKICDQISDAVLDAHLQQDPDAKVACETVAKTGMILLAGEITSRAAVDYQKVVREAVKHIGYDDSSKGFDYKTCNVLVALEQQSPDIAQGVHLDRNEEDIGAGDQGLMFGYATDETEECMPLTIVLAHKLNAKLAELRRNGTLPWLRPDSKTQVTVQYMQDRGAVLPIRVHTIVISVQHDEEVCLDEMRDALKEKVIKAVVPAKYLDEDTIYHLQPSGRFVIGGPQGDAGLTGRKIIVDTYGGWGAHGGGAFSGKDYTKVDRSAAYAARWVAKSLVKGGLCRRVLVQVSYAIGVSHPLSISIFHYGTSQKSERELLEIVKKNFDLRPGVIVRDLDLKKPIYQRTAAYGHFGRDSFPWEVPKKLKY

| Structure (SMILES) | IC50 (HCT116 MTAP-/-; [2]) | IC50 (HCT116 MTAP-/-; [3]) | IC50 [1, 4] | IC50 [1, 3] | IC50 (HCT116 MTAP+/+) | IC50 (MAT2A homodimer) |
| --- | --- | --- | --- | --- | --- | --- |
| COc1ccc(N2C(=O)N(c3ccc4nn(C)cc4c3)Cc3ccc(SCC(F)(F)F)nc32)cc1 [Example 161, 1-(4-methoxyphenyl)-3-(2-methyl-2H-indazol-5-yl)-7-((2,2,2-trifluoroethyl)thio)-3,4-dihydropyrido[2,3-d]pyrimidin-2(1H)-one] | 100 to 1000 nM | 100 to 1000 nM | 100 to 1000 nM | 100 to 1000 nM | > 1000 nM | < 100 nM |
| COc1ccc(N2C(=O)N(c3ccc4nn(C)cc4c3)Cc3ccc(NC4CCC4)nc32)cc1 [Example 162, 7-(cyclobutylamino)-1-(4-methoxyphenyl)-3-(2-methyl-2H-indazol-5-yl)-3,4-dihydropyrido[2,3-d]pyrimidin-2(1H)-one] | 100 to 1000 nM |  | 100 to 1000 nM |  | > 1000 nM | < 100 nM |
| [2H]C([2H])([2H])Oc1ccc(N2C(=O)N(c3ccc4nn(C)cc4c3)Cc3ccc(OCCF)nc32)cc1 [Example 163, 7-(2-fluoroethoxy)-1-(4-methoxy-d3-phenyl)-3-(2-methyl-2H-indazol-5-yl)-3,4-dihydropyrido[2,3-d]pyrimidin-2(1H)-one] | 100 to 1000 nM |  | 100 to 1000 nM |  | > 1000 nM | < 100 nM |
| [2H]C([2H])([2H])Oc1ccc(N2C(=O)N(c3ccc4nn(C)cc4c3)Cc3ccc(OCC4CC4)nc32)cc1 [Example 164, 7-(cyclopropylmethoxy)-1-(4-methoxy-d3-phenyl)-3-(2-methyl-2H-indazol-5-yl)-3,4-dihydropyrido[2,3-d]pyrimidin-2(1H)-one] | 100 to 1000 nM |  | 100 to 1000 nM |  | > 1000 nM | < 100 nM |
| [2H]C([2H])([2H])Oc1ccc(N2C(=O)N(c3ccc4nn(C)cc4c3)Cc3ccc(OCCC)nc32)cc1 [Example 165, 1-(4-methoxy-d3-phenyl)-3-(2-methyl-2H-indazol-5-yl)-7-propoxy-3,4-dihydropyrido[2,3-d]pyrimidin-2(1H)-one] | 100 to 1000 nM |  | 100 to 1000 nM |  | > 1000 nM | < 100 nM |
| [2H]C([2H])([2H])Oc1ccc(N2C(=O)N(c3ccc4nn(C)cc4c3)Cc3ccc(OC(C)C)nc32)cc1 [Example 167, 7-isopropoxy-1-(4-methoxy-d3-phenyl)-3-(2-methyl-2H-indazol-5-yl)-3,4-dihydropyrido[2,3-d]pyrimidin-2(1H)-one] | < 100 nM |  | < 100 nM |  | > 1000 nM | < 100 nM |
| [2H]C([2H])([2H])Oc1ccc(N2C(=O)N(c3ccc4nn(C)cc4c3)Cc3ccc(OC(C)C(F)F)nc32)cc1 (stereo not shown) [Example 168, 7-((1,1-difluoropropan-2-yl)oxy)-1-(4-methoxy-d3-phenyl)-3-(2-methyl-2H-indazol-5-yl)-3,4-dihydropyrido[2,3-d]pyrimidin-2(1H)-one] | < 100 nM |  | < 100 nM |  | > 1000 nM | < 100 nM |
| Cn1cc2cc(N3Cc4ccc(OCC(F)F)nc4N(c4ccc5[nH]ccc5c4)C3=O)ccc2n1 [Example 169, 7-(2,2-difluoroethoxy)-1-(1H-indol-5-yl)-3-(2-methyl-2H-indazol-5-yl)-3,4-dihydropyrido[2,3-d]pyrimidin-2(1H)-one] | < 100 nM |  | < 100 nM |  | > 1000 nM | < 100 nM |
| Cn1cc2cc(N3Cc4ccc(OCC(F)F)nc4N(c4ccc5scnc5c4)C3=O)ccc2n1 [Example 170, 1-(benzo[d]thiazol-5-yl)-7-(2,2-difluoroethoxy)-3-(2-methyl-2H-indazol-5-yl)-3,4-dihydropyrido[2,3-d]pyrimidin-2(1H)-one] | < 100 nM |  | < 100 nM |  | 100 to 1000 nM | < 100 nM |
| COC1CC=C(N2C(=O)N(c3ccc4nn(C)cc4c3)Cc3ccc(OCC(F)F)nc32)CC1 (stereo not shown) [Example 178, 7-(2,2-difluoroethoxy)-1-(4-methoxycyclohex-1-en-1-yl)-3-(2-methyl-2H-indazol-5-yl)-3,4-dihydropyrido[2,3-d]pyrimidin-2(1H)-one] | < 100 nM |  | < 100 nM |  | 100 to 1000 nM | < 100 nM |
| COc1ccc(N2C(=O)N(c3ccc4nn(C)cc4c3)Cc3ncc(OCC(F)F)nc32)cc1 [Example 180, 7-(2,2-difluoroethoxy)-1-(4-methoxyphenyl)-3-(2-methyl-2H-indazol-5-yl)-3,4-dihydropteridin-2(1H)-one] | < 100 nM |  | < 100 nM |  | 100 to 1000 nM | < 100 nM |
| [2H]C([2H])([2H])Oc1ccc(N2C(=O)N(c3ccc4nn(C)cc4c3)Cc3ncc(OCC(F)F)nc32)cc1 [Example 181, 7-(2,2-difluoroethoxy)-1-(4-(methoxy-d3)phenyl)-3-(2-methyl-2H-indazol-5-yl)-3,4-dihydropteridin-2(1H)-one] | < 100 nM |  | < 100 nM |  | > 1000 nM | < 100 nM |
| CCOc1cnc2c(n1)N(c1ccc(OC(F)F)cc1)C(=O)N(c1ccc3nn(C)cc3c1)C2 [Example 183, 1-(4-(difluoromethoxy)phenyl)-7-ethoxy-3-(2-methyl-2H-indazol-5-yl)-3,4-dihydropteridin-2(1H)-one] | 100 to 1000 nM |  | < 100 nM |  | > 1000 nM | < 100 nM |
| Cn1cc2cc(N3Cc4cc(F)c(OCC(F)F)nc4N(c4ccc(OC(F)F)cc4)C3=O)ccc2n1 [Example 184] | 100 to 1000 nM |  | 100 to 1000 nM |  | > 1000 nM | < 100 nM |
| [2H]C([2H])([2H])Oc1ccc(N2C(=O)N(c3ccc4nn(C)cc4c3)Cc3c(C)cc(OCC(F)F)nc32)cc1 [Example 185, 7-(2,2-difluoroethoxy)-1-(4-methoxy-d3-phenyl)-5-methyl-3-(2-methyl-2H-indazol-5-yl)-3,4-dihydropyrido[2,3-d]pyrimidin-2(1H)-one] | < 100 nM |  | < 100 nM |  | 100 to 1000 nM | < 100 nM |
| CCOc1cc2c(cn1)CN(c1ccc3nn(C)cc3c1)C(=O)N2c1ccc(OC(F)F)cc1 [Example 187, 1-(4-(difluoromethoxy)phenyl)-7-ethoxy-3-(2-methyl-2H-indazol-5-yl)-3,4-dihydropyrido[4,3-d]pyrimidin-2(1H)-one] | > 1000 nM |  | > 1000 nM |  | > 1000 nM | 100 to 1000 nM |

The remaining lines, values ahead:

| IC50 (HCT116 MTAP-/-; [2]) | IC50 (HCT116 MTAP-/-; [3]) | IC50 [1, 4] | IC50 [1, 3] | IC50 (HCT116 MTAP+/+) | IC50 (MAT2A homodimer) | Structure (SMILES) |
| --- | --- | --- | --- | --- | --- | --- |
| < 100 nM |  | < 100 nM |  | 100 to 1000 nM | < 100 nM | Cn1cc2cc(N3Cc4ccc(OCC(F)F)nc4N(c4ccc5c(ccn5C)c4)C3=O)ccc2n1 [Example 172, 7-(2,2-difluoroethoxy)-1-(1-methyl-1H-indol-5-yl)-3-(2-methyl-2H-indazol-5-yl)-3,4-dihydropyrido[2,3-d]pyrimidin-2(1H)-one] |
| 100 to 1000 nM |  | < 100 nM |  | 100 to 1000 nM | < 100 nM | Cn1cc2cc(N3Cc4ccc(OCC(F)F)nc4N(c4ccc5ncccc5c4)C3=O)ccc2n1 [Example 175, 7-(2,2-difluoroethoxy)-3-(2-methyl-2H-indazol-5-yl)-1-(quinolin-6-yl)-3,4-dihydropyrido[2,3-d]pyrimidin-2(1H)-one] |
| 100 to 1000 nM |  | 100 to 1000 nM |  | > 1000 nM | < 100 nM | Cn1cc2cc(N3Cc4ccc(OCC(F)F)nc4N(c4ccc5sncc5c4)C3=O)ccc2n1 [Example 176, 1-(benzo[d]isothiazol-5-yl)-7-(2,2-difluoroethoxy)-3-(2-methyl-2H-indazol-5-yl)-3,4-dihydropyrido[2,3-d]pyrimidin-2(1H)-one] |
| 100 to 1000 nM |  | < 100 nM |  | > 1000 nM | < 100 nM | Cn1cc2cc(N3Cc4ccc(OCC(F)F)nc4N(c4ccc5nscc5c4)C3=O)ccc2n1 [Example 177, 1-(benzo[c]isothiazol-5-yl)-7-(2,2-difluoroethoxy)-3-(2-methyl-2H-indazol-5-yl)-3,4-dihydropyrido[2,3-d]pyrimidin-2(1H)-one] |
| > 1000 nM |  | > 1000 nM |  | > 1000 nM | < 100 nM | Cn1cc2cc(N3Cc4ccc(OCC(F)F)nc4N(c4ccc5[nH]nnc5c4)C3=O)ccc2n1 [Example 179, 1-(1H-benzo[d][1,2,3]triazol-5-yl)-7-(2,2-difluoroethoxy)-3-(2-methyl-2H-indazol-5-yl)-3,4-dihydropyrido[2,3-d]pyrimidin-2(1H)-one] |
| 100 to 1000 nM |  | < 100 nM |  | 100 to 1000 nM | < 100 nM | Cn1cc2cc(N3Cc4ncc(OCC(F)F)nc4N(c4ccc(OC(F)F)cc4)C3=O)ccc2n1 [Example 182, 7-(2,2-difluoroethoxy)-1-(4-(difluoromethoxy)phenyl)-3-(2-methyl-2H-indazol-5-yl)-3,4-dihydropteridin-2(1H)-one] |
| < 100 nM |  | 100 to 1000 nM |  | 100 to 1000 nM | < 100 nM | CCOc1cnc2c(n1)N(c1ccc(OC(F)F)cc1)C(=O)N(c1ccc(OC)cc1)C2 [Example 186, 1-(4-(difluoromethoxy)phenyl)-7-ethoxy-3-(4-methoxyphenyl)-3,4-dihydropteridin-2(1H)-one] |
